# Data: patent US6555091B1, “Polypeptide capable of reacting with antibodies of patients suffering from multiple sclerosis and uses” (Bio Merieux, priority 1997, dated 2003)
# System: IgM of sera from MS patients and healthy individuals
# Assay: ELISA of biotinylated synthetic peptide, IgM response of individual human sera
# Format: binding
# Design: key to LINE (mark: serum recognizes the peptide): X: 7 sera out of 11 recognize this peptide
# Details: 1/100; for LINE (mark: serum recognizes the peptide) / OD 1 / OD 2 / OD 3 / MEAN: IgM
# Experimental: Depending on the information obtained from the preceding examples, the hexapeptides SEQ ID NO: 3 and SEQ ID NO: 4 were synthesized and biotinylated according to the method described in Patent Application No. EP 93420183 with the following modifications: the peptide still bound to the resin is selectively deprotected at the N-terminal position. After overnight incubation with the biotin-NHS at 50% in DMF, the peptide is then cleaved from the resin and treated as described in the patent cited above.
# The wells of a Maxisorb (trade name, Nunc) microtiter plate are saturated with 100 μl of a 50 mM NaHCO3 solution, pH 9.6, containing 10 μg/ml of streptavidin for 2 hours at 37° C. The plate is washed with TBS/0.05% Tween 20 buffer. The wells are then saturated with 250 μl of wash buffer supplemented with 10% goat serum for 1 hour at 37° C. and then washed as described above.
# The IgM response is determined by addition of a 1/4000 solution of mouse monoclonal antibody anti-alkaline phosphatase-labeled human M immunoglobulin conjugate (bioMérieux Ac 5A10D5). After incubation at 37° C. for one hour the plate is again washed and the p-nitrophenyl phosphate substrate at 1 mg/ml in an […] of diethanolamine, pH 9.8, containing 1 mM MgCl2, is added. The reaction is stopped after 30 minutes by the addition of 50 μl of 3N sodium hydroxide solution. The optical density is read at 405 nm.
# This unit was therefore also synthesized and biotinylated.
substance,measurement,setting,value
LAVRHD [SEQ ID NO: 8],LINE (mark: serum recognizes the peptide),"serum 33/6 (MS+, remission)",X
same,OD 1,"serum 33/6 (MS+, remission)",516 optical density (×1000)
same,OD 2,"serum 33/6 (MS+, remission)",529 optical density (×1000)
same,OD 3,"serum 33/6 (MS+, remission)",481 optical density (×1000)
same,MEAN,"serum 33/6 (MS+, remission), (mean less Control 1, 173)",336 optical density (×1000)
same,MEAN,"serum 33/6 (MS+, remission), MEAN",509 optical density (×1000)
same,LINE (mark: serum recognizes the peptide),"serum 33/8 (MS+, remission)",X
same,OD 1,"serum 33/8 (MS+, remission)",609 optical density (×1000)
same,OD 2,"serum 33/8 (MS+, remission)",512 optical density (×1000)
same,OD 3,"serum 33/8 (MS+, remission)",568 optical density (×1000)
same,MEAN,"serum 33/8 (MS+, remission), (mean less Control 1, 173)",390 optical density (×1000)
same,MEAN,"serum 33/8 (MS+, remission), MEAN",563 optical density (×1000)
same,LINE (mark: serum recognizes the peptide),"serum 33/18 (MS+, remission)",X
same,OD 1,"serum 33/18 (MS+, remission)",277 optical density (×1000)
same,OD 2,"serum 33/18 (MS+, remission)",262 optical density (×1000)
same,OD 3,"serum 33/18 (MS+, remission)",255 optical density (×1000)
same,MEAN,"serum 33/18 (MS+, remission), (mean less Control 1, 173)",92 optical density (×1000)
same,MEAN,"serum 33/18 (MS+, remission), MEAN",265 optical density (×1000)
same,OD 1,"serum No. 12 (MS−, healthy)",222 optical density (×1000)
same,OD 2,"serum No. 12 (MS−, healthy)",175 optical density (×1000)
same,OD 3,"serum No. 12 (MS−, healthy)",163 optical density (×1000)
same,MEAN,"serum No. 12 (MS−, healthy), (mean less Control 1, 173)",14 optical density (×1000)
same,MEAN,"serum No. 12 (MS−, healthy), MEAN",187 optical density (×1000)
same,OD 1,"serum No. 13 (MS−, healthy)",145 optical density (×1000)
same,OD 2,"serum No. 13 (MS−, healthy)",154 optical density (×1000)
same,OD 3,"serum No. 13 (MS−, healthy)",196 optical density (×1000)
same,MEAN,"serum No. 13 (MS−, healthy), (mean less Control 1, 173)",−6 optical density (×1000)
same,MEAN,"serum No. 13 (MS−, healthy), MEAN",165 optical density (×1000)
same,OD 1,"serum No. 14 (MS−, healthy)",320 optical density (×1000)
same,OD 2,"serum No. 14 (MS−, healthy)",165 optical density (×1000)
same,OD 3,"serum No. 14 (MS−, healthy)",143 optical density (×1000)
same,MEAN,"serum No. 14 (MS−, healthy), (mean less Control 1, 173)",36 optical density (×1000)
same,MEAN,"serum No. 14 (MS−, healthy), MEAN",209 optical density (×1000)
same,OD 1,"serum No. 15 (MS−, healthy)",254 optical density (×1000)
same,OD 2,"serum No. 15 (MS−, healthy)",205 optical density (×1000)
same,OD 3,"serum No. 15 (MS−, healthy)",173 optical density (×1000)
same,MEAN,"serum No. 15 (MS−, healthy), (mean less Control 1, 173)",38 optical density (×1000)
same,MEAN,"serum No. 15 (MS−, healthy), MEAN",211 optical density (×1000)
same,LINE (mark: serum recognizes the peptide),"serum QS 2 (MS+, remission)",X
same,OD 1,"serum QS 2 (MS+, remission)",281 optical density (×1000)
same,OD 2,"serum QS 2 (MS+, remission)",280 optical density (×1000)
same,OD 3,"serum QS 2 (MS+, remission)",231 optical density (×1000)
same,MEAN,"serum QS 2 (MS+, remission), (mean less Control 1, 173)",91 optical density (×1000)
same,MEAN,"serum QS 2 (MS+, remission), MEAN",264 optical density (×1000)
same,OD 1,"serum QS 3 (MS+, remission)",191 optical density (×1000)
same,OD 2,"serum QS 3 (MS+, remission)",169 optical density (×1000)
same,OD 3,"serum QS 3 (MS+, remission)",164 optical density (×1000)
same,MEAN,"serum QS 3 (MS+, remission), (mean less Control 1, 173)",2 optical density (×1000)
same,MEAN,"serum QS 3 (MS+, remission), MEAN",175 optical density (×1000)
same,LINE (mark: serum recognizes the peptide),"serum QS 4 (MS+, remission)",X
same,OD 1,"serum QS 4 (MS+, remission)",374 optical density (×1000)
same,OD 2,"serum QS 4 (MS+, remission)",361 optical density (×1000)
same,OD 3,"serum QS 4 (MS+, remission)",346 optical density (×1000)
same,MEAN,"serum QS 4 (MS+, remission), (mean less Control 1, 173)",187 optical density (×1000)
same,MEAN,"serum QS 4 (MS+, remission), MEAN",360 optical density (×1000)
same,OD 1,"serum QS 6 (MS+, remission)",156 optical density (×1000)
same,OD 2,"serum QS 6 (MS+, remission)",147 optical density (×1000)
same,OD 3,"serum QS 6 (MS+, remission)",151 optical density (×1000)
same,MEAN,"serum QS 6 (MS+, remission), (mean less Control 1, 173)",−22 optical density (×1000)
same,MEAN,"serum QS 6 (MS+, remission), MEAN",151 optical density (×1000)
same,LINE (mark: serum recognizes the peptide),"serum QS 7 (MS+, remission)",X
same,OD 1,"serum QS 7 (MS+, remission)",311 optical density (×1000)
same,OD 2,"serum QS 7 (MS+, remission)",290 optical density (×1000)
same,OD 3,"serum QS 7 (MS+, remission)",164 optical density (×1000)
same,MEAN,"serum QS 7 (MS+, remission), (mean less Control 1, 173)",82 optical density (×1000)
same,MEAN,"serum QS 7 (MS+, remission), MEAN",265 optical density (×1000)
same,LINE (mark: serum recognizes the peptide),"serum QS 8 (MS+, remission)",X
same,OD 1,"serum QS 8 (MS+, remission)",305 optical density (×1000)
same,OD 2,"serum QS 8 (MS+, remission)",221 optical density (×1000)
same,OD 3,"serum QS 8 (MS+, remission)",265 optical density (×1000)
same,MEAN,"serum QS 8 (MS+, remission), (mean less Control 1, 173)",91 optical density (×1000)
same,MEAN,"serum QS 8 (MS+, remission), MEAN",264 optical density (×1000)
same,OD 1,"serum QS 11 (MS+, remission)",164 optical density (×1000)
same,OD 2,"serum QS 11 (MS+, remission)",160 optical density (×1000)
same,OD 3,"serum QS 11 (MS+, remission)",139 optical density (×1000)
same,MEAN,"serum QS 11 (MS+, remission), (mean less Control 1, 173)",−19 optical density (×1000)
same,MEAN,"serum QS 11 (MS+, remission), MEAN",154 optical density (×1000)
same,OD 1,"serum QS 12 (MS+, remission)",123 optical density (×1000)
same,OD 2,"serum QS 12 (MS+, remission)",57 optical density (×1000)
same,OD 3,"serum QS 12 (MS+, remission)",148 optical density (×1000)
same,MEAN,"serum QS 12 (MS+, remission), (mean less Control 1, 173)",−64 optical density (×1000)
same,MEAN,"serum QS 12 (MS+, remission), MEAN",109 optical density (×1000)
same,"MS sera recognizing the peptide, IgM response",same panel of 11 MS remission sera,7 sera out of 11
